# Data reported in patent US9333280B2, “Stabilized enzyme compositions” (Teleflex Medical Incorporated, priority 2009, dated 2016).
# Tested on: Staphylococcus aureus ATCC 33591
# Assay: Adherence of bacteria on catheter segments
# Assay type: cell-based
# Settings: against the tested organisms
# Procedure: In addition to fibrinolytic activity, antimicrobial activity of the 1% LMW-DexS (8 kDa) treated catheters was evaluated. In this test, adherence of gram positive bacteria Staphylococcus aureus ATCC 33591, on the catheter segments having immobilized enzyme uPA stabilized with 1% LMW-DexS (8 kDa), along with the antimicrobial agents such as gentian violet (0.6%) and chlorhexidine dodecanoate was compared to similarly treated catheter segments but without the LMW-DexS (8 kDa) stabilized enzyme.
row,SMILES,antimicrobial activity after attachment of LMW-DexS (8 kDa) stabilized urokinase
1,CCCCCCCCCCCC(=O)O.NC(=NCCCCCCN=C(N)N=C(N)Nc1ccc(Cl)cc1)N=C(N)Nc1ccc(Cl)cc1 [chlorhexidine dodecanoate],not compromised
2,CN(C)c1ccc(C(=C2C=CC(=[N+](C)C)C=C2)c2ccc(N(C)C)cc2)cc1 [gentian violet],not compromised
